Reference: patent publication US7179954B1, “Isolated nucleic acids coding for a nuclear base transporter and uses thereof” (Carnegie Insitution of Washington, priority 1999, dated 2007)

Columns and labels:
Type in all cases: cell-based
[1] = target: T1, PUP1 nuclear base transporter (Arabidopsis thaliana, UniProt Q9FZ96, S63G); experiment: Uptake of radioactively labelled adenine and cytosine by yeast strain MG887ura3-::pFL61-PUP1
T1 construct: The PUP1 protein expressed by the yeast strain MG887ura3^−::pFL61-PUP1; expressed in transfected cells; host or cells: Saccharomyces cerevisiae MG887ura3- (fcy2), plasmid pFL61-PUP1
Protocol: (§1) For measuring the rate of uptake the yeast strains MG887ura3^−::pFL61, MG887ura3^−::pFL61-PUP1 and their original strain Σ1278b (Dubois & Grenson, 1979, Mol. Gen. Genet. 175, 67–76) were cultured in complete medium (YPD) without uracil and with 2% glucose as carbon source up to an OD600 of 0.6 at 28° C. The cells were harvested at 3000 g, washed twice with water and brought to an OD600 of 12 with sodium phosphate buffer (100 mM, pH 4.5), 1% glucose. The cell suspension was stored in 100 μl portions on ice up to the beginning of the uptake measurements. Before the start of the uptake measurements the cells were pre-incubated at 30° C. for 2 minutes. The reaction was then started, by which 100 μl of radioactively labelled substrate solution was added to 100 μl cell suspension. The reaction mixture was incubated at 30° C. and after 30, 60, 120 and 180 seconds in each case 50 μl of suspension was withdrawn and placed in 4 ml of ice-cold water (in measurements over 180 seconds more cell suspension and substrate solution were correspondingly added). The cells were absorbed on to glass fibre filters and washed with 4 ml of ice-cold water. The radioactivity on the filters was finally ascertained in a liquid scintillation counter.
(§2) Substrate solution: For the substrate solution what is concerned is a 100 mM sodium phosphate buffer pH 4.5 with 1% glucose and 9.25 Bq/μl of radioactively labelled substrate (25–100 μM [^14C] adenine or [^14C] cytosine). In addition the substrate solution contains the unlabelled substrate, possible inhibitors and competitors in double end-concentration. For estimation of the optimum pH the pH value of the sodium phosphate buffer is also changed. When the influence of glucose on the uptake rate is measured neither the cell suspension nor the substrate solution contains glucose. Glucose is only added after starting the uptake measurements at the commencement of measuring at an end-concentration of 1%.
(§3) In Table 1 the uptake of radioactively labelled adenine and cytosine mediated by the PUP1 nuclear base transporter is indicated by the yeast strain MG887ura3^−::pFL61-PUP1. For calculation of the intracellular concentration the cell volume is estimated as four times the dry weight (Ninnemann et al., 1994, EMBO J. 15, 3464–3471). The uptake occurs against a concentration gradient.

[2] = target: T2, PUP1 nuclear base transporter (Arabidopsis thaliana, UniProt Q9FZ96); experiment: as above; settings: initial concentration medium 200 μM; intracellular, cell volume estimated as four times the dry weight
T2 construct: The PUP1 protein expressed by the yeast strain MG887ura3^−::pFL61-PUP1; expressed in transfected cells; host or cells: Saccharomyces cerevisiae MG887ura3- (fcy2), plasmid pFL61-PUP1
Protocol: as §1, §2, §3

[3] = target: PUP1 (Arabidopsis thaliana, UniProt Q9FZ96, S63G); experiment: Voltage and current measurement in Xenopus oocytes expressing PUP1; design: a primer was used which demolishes the STOP codon of PUP1 and simultaneously inserts a NotI excision site; expressed in transfected cells; host or cells: Xenopus oocytes injected with in vitro transcribed RNA
Protocol: The one-way directed currents are measured as soon as adenine is added. The current strength is dependent on the concentration (bars indicate the current on the ordinate and the time on the abscissa).
The cDNA for PUP1 was excised with NotI and cloned in an oocyte expression vector containing untranslated 5′ and 3′ regions of the β-globin from Xenopus. The cDNA was then replicated by means of PCR. SP6 (from the oocyte vector) was used as upstream primer, as downstream primer a primer was used which demolishes the STOP codon of PUP1 and simultaneously inserts a NotI excision site. This PCR fragment was excised by NotI and HindIII and ligated into an oocyte expression vector which in addition contains behind the NotI excision site the gene for GFP (“green fluorescent protein” from the jellyfish). In that way an open reading-frame is constructed for a fusion protein from PUP1 and GFP. By insertion of the NotI excision site a linker with three base pairs coding for alanine is constructed. The plasmid was linearized with MIuI, and RNA was transcribed in vitro by means of SP6 polymerase and absorbed into water to about 1 ng/nl. Each oocyte (ripening stage 5 to 6) was injected with 50 nl. […]
For voltage measurement a glass electrode filled with 3M KCl was stuck into the oocyte. With a Dagan amplifier the potential was measured relative to the reference electrode. […]

[4] = target: T3, PUP2 (Arabidopsis thaliana, UniProt Q94GB1); experiment: Adenine transport by PUP2
T3 construct: expressed in transfected cells; host or cells: Saccharomyces cerevisiae (inferred)
T3 sequence (Q94GB1 1-347 isoform Q94GB1-2): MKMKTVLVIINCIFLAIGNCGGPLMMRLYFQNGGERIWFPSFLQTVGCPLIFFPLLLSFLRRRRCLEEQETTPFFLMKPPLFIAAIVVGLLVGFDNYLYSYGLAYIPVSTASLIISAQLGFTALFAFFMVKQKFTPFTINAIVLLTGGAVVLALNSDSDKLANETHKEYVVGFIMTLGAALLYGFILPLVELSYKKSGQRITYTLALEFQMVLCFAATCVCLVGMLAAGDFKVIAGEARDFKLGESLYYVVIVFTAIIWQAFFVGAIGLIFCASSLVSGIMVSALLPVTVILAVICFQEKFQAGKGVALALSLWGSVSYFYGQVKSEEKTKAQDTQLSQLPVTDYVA
Protocol: as §2

[5] = target: T4, FCY2 transporter (Saccharomyces cerevisiae, UniProt P17064); experiment: Adenine uptake by the yeast's own FCY2 transporter (competition experiment reference); settings: substrate concentration 25 μM
T4 construct: in comparison to the yeast's own FCY2 transporter; endogenous in cells
T4 sequence (P17064 1-533): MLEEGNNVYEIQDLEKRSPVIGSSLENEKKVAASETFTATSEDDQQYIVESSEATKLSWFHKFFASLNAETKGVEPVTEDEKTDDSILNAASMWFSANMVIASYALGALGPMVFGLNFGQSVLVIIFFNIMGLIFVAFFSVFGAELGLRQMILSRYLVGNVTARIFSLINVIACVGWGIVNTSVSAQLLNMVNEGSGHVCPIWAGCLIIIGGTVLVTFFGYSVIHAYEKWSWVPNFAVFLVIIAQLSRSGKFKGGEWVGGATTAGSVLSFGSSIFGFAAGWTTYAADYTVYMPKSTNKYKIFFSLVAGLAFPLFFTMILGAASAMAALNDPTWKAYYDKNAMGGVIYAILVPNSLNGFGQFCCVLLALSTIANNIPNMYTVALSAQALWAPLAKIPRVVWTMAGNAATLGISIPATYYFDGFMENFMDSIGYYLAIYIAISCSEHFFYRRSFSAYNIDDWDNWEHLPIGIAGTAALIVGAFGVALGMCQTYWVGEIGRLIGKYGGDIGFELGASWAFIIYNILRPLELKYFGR
Protocol: as §1, with “The reaction mixture was incubated at 30° C. and after 30, 60, 120 and 180 seconds in each case 50 μl of suspension was withdrawn and placed in 4 ml of ice-cold water (in measurements over 180 seconds more cell suspension and substrate solution were correspondingly added). The cells were absorbed on to glass fibre filters and washed with 4 ml of ice-cold water.” left out
Substrate solution: For the substrate solution what is concerned is a 100 mM sodium phosphate buffer pH 4.5 with 1% glucose and 9.25 Bq/μl of radioactively labelled substrate (25–100 μM [^14C] adenine or [^14C] cytosine). […] When the influence of glucose on the uptake rate is measured neither the cell suspension nor the substrate solution contains glucose. […]

T1 sequence (Q9FZ96 whole entry S63G): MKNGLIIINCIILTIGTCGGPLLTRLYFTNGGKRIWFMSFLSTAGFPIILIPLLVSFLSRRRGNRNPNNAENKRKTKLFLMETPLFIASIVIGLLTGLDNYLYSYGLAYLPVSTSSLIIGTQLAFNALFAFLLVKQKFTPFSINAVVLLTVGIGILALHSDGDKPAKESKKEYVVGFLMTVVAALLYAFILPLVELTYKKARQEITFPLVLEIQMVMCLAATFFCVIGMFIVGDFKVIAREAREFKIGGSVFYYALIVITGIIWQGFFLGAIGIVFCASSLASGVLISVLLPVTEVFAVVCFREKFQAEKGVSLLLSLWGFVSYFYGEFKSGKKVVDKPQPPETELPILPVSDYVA
PUP1, sequence (Q9FZ96 whole entry S63G): as above
T2 sequence (Q9FZ96 whole entry S63G): as above

## Nc1ncnc2nc[nH]c12 [Adenine, adenine]
[1]; cells versus medium, initial concentration medium 200 μM
  Enrichment factor: 15
[1]; initial concentration medium 200 μM, yeast strain MG887ura3-::pFL61-PUP1
  End conc. Medium: 155 µM
[1]; substrate concentration 25 μM, PUP1 expressed in yeast
  Uptake of radioactively labelled adenine (set at 100%): 1.7 nmol.min^−1 .mg^−1 dry weight
[2]
  End conc Cells: 2350 µM
[3]; adenine in the bath solution, resting potential about -30 mV at pH 7.3
  Effect on oocyte membrane potential: provokes depolarization of the oocyte
[3]; oocytes held at a voltage of -80 mV
  Effect on current: induces a current in one direction
[4]
  Transport by PUP2: in a position to transport adenine
[5]
  Uptake of radioactively labelled adenine (set at 100%): 0.9 nmol.min^−1 .mg^−1 dry weight
